Publication PMC5292209 (Biochemistry, 2016)

Biological target: T1, Protein tyrosine phosphatase 1B (PTP1B) (Homo sapiens, UniProt P18031)
T1 sequence (P18031 1-301): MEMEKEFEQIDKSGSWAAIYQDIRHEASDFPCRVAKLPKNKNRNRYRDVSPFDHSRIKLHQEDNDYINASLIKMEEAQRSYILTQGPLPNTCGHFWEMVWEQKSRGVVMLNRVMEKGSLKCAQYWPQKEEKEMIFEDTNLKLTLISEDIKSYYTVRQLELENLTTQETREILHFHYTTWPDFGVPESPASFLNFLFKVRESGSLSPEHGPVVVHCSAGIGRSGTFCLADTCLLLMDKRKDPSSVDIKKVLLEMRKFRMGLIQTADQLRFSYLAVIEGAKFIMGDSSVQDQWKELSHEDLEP

Km: 2800 ± 100 µM
Structure (SMILES): O=[N+]([O-])c1ccc(OP(=O)(O)O)cc1 [pNPP, p-nitrophenyl phosphate]
